In patent publication US10947596B2, “Compositions and methods for identification, assessment, prevention, and treatment of cancer using NFS1 biomarkers and modulators” (Dana-Farber Cancer Institute, Inc., priority 2014, dated 2021):
“Also recorded” adds a separate entry of the source.

What was measured:
ferroptosis = settings: cited from earlier work
PTGS2 = settings: cited from earlier work
HIF2alpha = assay: Western blot for HIF2alpha in C2BBE1 cells; assay type: cell-based; settings: parental C2BBE1 cells, treatment for 24 hours, relative to untreated
MKN74 cells = assay: Clonogenic growth assay in MKN74 cells; assay type: cell-based; settings: MKN74 stable shRNA lines infected with constitutive cDNA lentivirus (GFP, WT NFS1 or NFS1^C381A), thirteen days post-doxycycline
Description: Clonogenic assays were performed for longer-term assessment of proliferative phenotypes. Three days following doxycycline (dox)-induction (of stable, inducible shRNA lines using 0.5 ug/mL dox) or infection (for constitutive shRNA expression), cells were trypsinized, counted (Countess Automated Cell Counter. Life Technologies), and re-plated in duplicate or triplicate in 6-well dishes at 750 to 3000 cells per well, depending on cell line. Clonogenic growth was monitored by RFP (pRSIT12 vector) or GFP (pRSI6 vector) expression at 1 week intervals using a laser scanning cytometer to measure colony area and numbers of colonies per well (IsoCyte, ImageXpress Velos). Two to three weeks after plating cells, cells were stained using crystal violet as an additional visualization of colony formation. […]
Knockdown of NFS1 inhibits clonogenic cell growth. […] Three days post-dox-induction, cells were trypsinized, counted, and plated at low density (750 cells per well of a 6-well dish) for assaying clonogenic growth. Additional cells were also collected and assessed by q-RT-PCR for NFS1 knockdown. Clonogenic growth (relative colony area shown in FIG. 5, as well as the number of objects) was monitored by red fluorescent protein (RFP) expression over two weeks scanning the plates on a laser scanning cytometer (IsoCyte, ImageXpress Velos). […]

aconitase = assay: Aconitase activity colorimetric assay in MKN74 lysates; assay type: cell-based; settings: MKN74, constitutive shRNA or cDNA lentivirus, seven days post-infection
Description: Aconitase activity was assessed three to eleven days post-infection or dox induction in one million cells using the Aconitase Activity calorimetric Assay Kit (Biovision K716-100). Succinate dehydrogenase activity was assessed using the Succinate Dehydrogenase Activity Colorimetric Assay Kit (Biovision K660-100).
(§1) In order to confirm that such pharmacodynamic markers associated with NFS1 can be used as adjuncts or surrogate markers for directly assessing NFS1 modulation, several experiments were performed. […] The stable lines were replated at 3 days post-dox, cultured for 3 days further, and assessed for NFS1 mRNA knockdown (top right panel) or PTGS2 (Cox2) mRNA levels (bottom right panel) by q-RT-PCR. […]
Similarly, after 7 days of NFS1 knockdown, decreases in aconitase activity and ferritin protein levels, along with upregulation of TFRC protein we observed (FIG. 15). […] These cells were then either lysed in RIPA buffer, quantified, and equally loaded on a SDS-PAGE gel for analysis by Western by staining for TfRC, NFS1, FTL, or GAPDH (loading control); or trypsinized, counted, lysed, and analyzed for aconitase activity. […] These cells were then either lysed in RIPA buffer, quantified, and equally loaded on a SDS-PAGE gel for analysis by Western and staining for NFS1 and GAPDH; or trypsinized, counted, lysed and analyzed for succinate dehydrogenase activity and aconitase activity. […]

ferritin = assay: Western blot for ferritin (FTH1/FTL) in MKN74; assay type: cell-based; settings: MKN74, constitutive shRNA or cDNA lentivirus, seven days post-infection
Description: Cells were lysed in NP-40 lysis buffer (Boston BioProducts) supplemented with 1× Halt Protease/Phosphatase Inhibitor Cocktail (Pierce Biotechnology, Inc.), 1 mM Dithiothreitol, and 1 mM Phenylmethanesulfonylfluoride. Lysates were cleared by centrifugation and quantified using a BCA Protein Assay Kit (Pierce Biotechnology, Inc.). Lysates were resolved by SDS-PAGE (using Mini-Protean TGX gradient gels, Bio-Rad Laboratories), transferred to nitrocellulose (using the iBlot Gel, Transfer Device and Dry Blotting System, Life Technologies) and blocked in 5% nonfat milk (Blotting-Grade Blocker, Bio-Rad). […] Peroxidase-conjugated secondary antibodies (Donkey anti-rabbit IgG or Donkey anti-mouse IgG, Jackson ImmunoResearch Laboratories, Inc.) were used at 1:5000 in 5% blocking solution, and protein bands were detected using Pico SuperSignal West Pico Chemiluminescent substrate (Thermo Scientific, Pierce Biotechnology, Inc.).
as §1

COC(=O)c1ccc([C@H]2c3[nH]c4ccccc4c3C[C@H](C(=O)OC)N2C(=O)CCl)cc1 [1S3R-RSL3, (1S,3R)-RSL3]
ferroptosis (ferroptosis): induce ferroptosis | PTGS2 expression (PTGS2): upregulation

[Cl][Co][Cl] [cobalt chloride]
HIF2alpha levels (HIF2alpha): modulation of HIF2alpha levels

NFS1^C381A: mutant NFS1 that is catalytically dead due to a C381A mutation, dominant negative, expressed from lentiviral cDNA
clonogenic growth (MKN74 cells): growth inhibitory effects comparable to that of NFS1-sh5; also recorded: strongly inhibited cell growth | aconitase activity (aconitase): decrease | ferritin (FTH1) levels (ferritin): decrease
